# Measured values: ChEMBL document CHEMBL1126495, “A new series of potent LTD4 antagonists in the styrylquinoline class” (Bioorg Med Chem Lett, 1993)
# Molecular target: T1, Cysteinyl leukotriene receptor 1 (Cavia porcellus, UniProt Q2NNR5)
# T1 sequence (Q2NNR5 whole entry): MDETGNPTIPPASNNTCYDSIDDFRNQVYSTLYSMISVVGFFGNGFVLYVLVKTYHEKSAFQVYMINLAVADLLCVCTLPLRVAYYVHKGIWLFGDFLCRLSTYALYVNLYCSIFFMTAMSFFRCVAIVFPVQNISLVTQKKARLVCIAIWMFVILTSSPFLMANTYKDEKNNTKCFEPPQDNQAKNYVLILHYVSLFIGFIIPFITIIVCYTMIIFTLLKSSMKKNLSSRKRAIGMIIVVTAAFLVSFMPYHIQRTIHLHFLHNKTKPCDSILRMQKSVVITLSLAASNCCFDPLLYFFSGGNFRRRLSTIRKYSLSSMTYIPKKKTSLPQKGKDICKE
# Test: Inhibition of [3H]LTD4 binding to guinea-pig lung membrane
# Assay type: tissue-based
row,SMILES,IC50 [nM]
1,CC(C)(O)CCCSC(CCC(C)(C)CC(=O)O)c1cccc(/C=C/c2ccc3ccc(Cl)cc3n2)c1 (stereo not drawn),1.3
2,CC(CC[C@H](SCCCC(C)(C)O)c1cccc(/C=C/c2ccc3ccc(Cl)cc3n2)c1)CC(=O)O (stereo partly drawn),0.5
3,CC(C)(O)c1ccccc1CS[C@@H](CCC1(CC(=O)O)CC1)c1cccc(CCc2ccc3ccc(Cl)cc3n2)c1,1.4
4,CC(C)(CC[C@@H](SCc1ccccc1C(C)(C)O)c1cccc(CCc2ccc3ccc(Cl)cc3n2)c1)CC(=O)O,1.9
5,CC(C)(CC[C@H](SCc1ccccc1C(C)(C)O)c1cccc(CCc2ccc3ccc(Cl)cc3n2)c1)CC(=O)O,0.6
6,CC(C)(CC[C@@H](SCc1ccccc1C(C)(C)O)c1cccc(/C=C/c2ccc3ccc(Cl)cc3n2)c1)CC(=O)O,1
7,CC(C)(CC[C@H](SCc1ccccc1C(C)(C)O)c1cccc(/C=C/c2ccc3ccc(Cl)cc3n2)c1)CC(=O)O,0.6
8,CC(C)(CC[C@H](SCc1ccccn1)c1cccc(CCc2ccc3ccc(Cl)cc3n2)c1)CC(=O)O,1.6
9,C[C@H](CCC[C@@H](SCCC(C)(C)O)c1cccc(/C=C/c2ccc3ccc(Cl)cc3n2)c1)C(=O)O,0.8
10,CC(C)(CC[C@H](SCCc1ccccn1)c1cccc(CCc2ccc3ccc(Cl)cc3n2)c1)CC(=O)O,2.2
11,C[C@H](CCC[C@H](SCCC(=O)N(C)C)c1cccc(/C=C/c2ccc3ccc(Cl)cc3n2)c1)C(=O)O,2.3
12,C[C@H](CCC[C@@H](SCCC(=O)N(C)C)c1cccc(/C=C/c2ccc3ccc(Cl)cc3n2)c1)C(=O)O,0.9
13,C[C@H](CCC[C@H](SCCC(C)(C)O)c1cccc(/C=C/c2ccc3ccc(Cl)cc3n2)c1)C(=O)O,2
